In patent US11319347B2, “Peptide compound and method for producing same, composition for screening use, and method for selecting peptide compound” (FUJIFILM Corporation, priority 2017, dated 2022):
Starred links: 1 amine or outer side, 2 acyl side, 3 side chain; linkers in the order of their positions; H or OH if unused. Positions of bridges follow the written chain, without caps; N, C: chain ends. Non-standard residues stand in square brackets, D forms with d. Residues, ends and D or L forms follow the SMILES beside them. Phe(3-(4R-CO-2-thiazolinyl)) = O=C([C@H](Cc1cccc(C2=N[C@H](C(=O)[*:3])CS2)c1)N[*:1])[*:2]; dCha = N[C@H](CC1CCCCC1)C(=O)O; Nle = CCCC[C@H](N)C(=O)O

Test: Membrane permeability of synthesized cyclic peptides by PAMPA (Measurement Method A: 1 μmol/L; Method B: 10 μmol/L)
Assay type: in vitro ADME
Conditions: Measurement method A, 25° C., 4 hours
Protocol: Evaluation of membrane permeability of synthesized cyclic peptide by PAMPA method In order to compare and examine the membrane permeability of the synthesized cyclic peptide, parallel artificial membrane permeability assay (PAMPA) was carried out.
An artificial phospholipid membrane was produced by adding 5 μL of a phospholipid organic solvent solution consisting of L-α-phosphatidylcholine (Avanti Polar Lipids, Inc., Cat. 840051P, 1.67%), 1,2-dioleoyl-sn-glycero-3-phospho-L-serine (Avanti Polar Lipids, Inc., Cat. 840035P, 0.33%), and n-dodecane special grade (Wako Pure Chemical Industries, Ltd., 047-21612)/1-octanol reagent special grade (Kanto Chemical Co., Inc., Cat. 31013-08)=10:1 to Filter Plate (Merck Millipore Corporation, Cat. MAIPN4550).
475 μL of 50 mmol/L potassium phosphate buffer (KPB, pH 7.4 or pH 6.5) was added to 25 μL of a DMSO solution containing the compound at a concentration of 20 μmol/L, so that the compound was diluted to a final concentration of 1 μmol/L. 300 μL of the compound solution was added to the lower side (donor side) of PAMPA 96-well plate (Filter Plate (Merck Millipore Corporation, Cat. MAIPN4550)) with an artificial phospholipid membrane being interposed therebetween. 200 μL of 5% DMSO KPB (pH 7.4) was added to the upper side (acceptor side) with the artificial phospholipid membrane being interposed therebetween. A permeation test through an artificial phospholipid membrane was carried out at 25° C. for 4 hours. The compound concentration in the solution in the donor plate and the acceptor plate was measured by LC/MS/MS, and the membrane permeation rate (Pe) of the compound was calculated from the following formula, assuming that C0 is an initial compound concentration in donor solution, t is a test time, A is a membrane filter area=0.3 cm^2, VD is a donor solution amount=300 μL, VA is an acceptor solution amount=200 μL, and CD(t) is a compound concentration in donor solution at time t, CA(t) is a compound concentration in acceptor solution at time t, and Cequilibrium=[CD(t)*VD+CA(t)*VA]/(VD+VA).
475 μL of 50 mmol/L potassium phosphate buffer (KPB, pH 7.4 or pH 6.5) was added to 25 μL of a DMSO solution containing the compound at a concentration of […], so that the compound was diluted to a final concentration of 10 μmol/L. The compound solution was added 300 μL each to the lower side (donor side) of an artificial phospholipid membrane of PAMPA 96-well plate (Filter Plate (Merck Millipore Corporation, Cat. MAIPN4550)). 200 μL of 5% DMSO KPB (pH 7.4) was added to the upper side (acceptor side) with the artificial phospholipid membrane being interposed therebetween. A permeation test through an artificial phospholipid membrane was carried out at 25° C. for 4 hours. The compound concentration in the solution in the donor plate and the acceptor plate was measured by LC/MS/MS, and the membrane permeation rate (Pe) of the compound was calculated from the following formula, assuming that Co is an initial compound concentration in donor solution, t is a test time, A is a membrane filter area=0.3 cm^2, VD is a donor solution amount=300 μL, VA is an acceptor solution amount=200 μL, and CD(t) is a compound concentration in donor solution at time t, CA(t) is a compound concentration in acceptor solution at time t, and Cequilibrium=[CD(t)*VD+CA(t)*VA]/(VD+VA).
The membrane permeability (Pe(10^−6 cm/s)) obtained by this method is described in the following table.
Evaluation standards are as follows.

Compound | Pe(10^−6 cm/sec)
N=C(N)NCCC[C@@H]1NC(=O)[C@H](Cc2c[nH]c3ccccc23)NC(=O)[C@@H](CC2CCCCC2)NC(=O)[C@@H]2CCCN2C(=O)[C@@H]2CSC(=N2)C2=Cc3ccc(cc3S2)C[C@@H](C(N)=O)NC1=O [2-2] | +++ (0.5<Pe (10^−6 cm/s))
N=C(N)NCCC[C@@H]1NC(=O)[C@H](Cc2c[nH]c3ccccc23)NC(=O)[C@@H](CC2CCCCC2)NC(=O)[C@@H]2CCCN2C(=O)[C@@H]2CSC(=N2)c2cnc3cc(ccc3c2)C[C@@H](C(N)=O)NC1=O [2-4] | +++ (0.5<Pe (10^−6 cm/s))
N=C(N)NCCC[C@@H]1NC(=O)[C@H](Cc2c[nH]c3ccccc23)NC(=O)[C@@H](CC2CCCCC2)NC(=O)[C@@H]2CCCN2C(=O)[C@@H]2CSC(=N2)c2sccc2C[C@@H](C(N)=O)NC1=O [2-17] | +++ (0.5<Pe (10^−6 cm/s))
N=C(N)NCCC[C@@H]1NC(=O)[C@H](Cc2c[nH]c3ccccc23)NC(=O)[C@@H](CC2CCCCC2)NC(=O)[C@@H]2CCCN2C(=O)[C@@H]2CSC(=N2)c2ccc(cn2)C[C@@H](C(N)=O)NC1=O [3-1] | +++ (0.5<Pe (10^−6 cm/s))
N=C(N)NCCC[C@@H]1NC(=O)[C@H](Cc2c[nH]c3ccccc23)NC(=O)[C@@H](CC2CCCCC2)NC(=O)[C@@H]2CCCN2C(=O)[C@@H]2CSC(=N2)C[C@@H](C(N)=O)NC1=O [3-5] | ++ (0.2<Pe (10^−6 cm/s)≤0.5)
NC(=O)[C@@H]1Cc2csc(c2)C2=N[C@@H](CCS2)C(=O)N[C@H](Cc2ccc(O)cc2)C(=O)NCC(=O)NCC(=O)N[C@H](Cc2ccccc2)C(=O)N1 [4-2] | +++ (0.5<Pe (10^−6 cm/s))
NC(=O)[C@@H]1Cc2csc(c2)C2=N[C@@H](CS2)C(=O)N[C@H](Cc2ccc(O)cc2)C(=O)NCC(=O)NCC(=O)N[C@H](Cc2ccccc2)C(=O)N1 [4-3] | +++ (0.5<Pe (10^−6 cm/s))
CC(C)C[C@@H]1NC(=O)[C@@H](C(C)C)NC(=O)[C@@H]2CSC(=N2)c2cc(cs2)C[C@@H](C(N)=O)NC(=O)[C@@H](CCC(=O)O)NC(=O)[C@@H](Cc2c[nH]c3ccccc23)NC1=O [4-4] | ++ (0.2<Pe (10^−6 cm/s)≤0.5)
C[C@@H](O)[C@@H]1NC(=O)[C@H](CCCCN)NC(=O)[C@@H](Cc2c[nH]c3ccccc23)NC(=O)[C@H](Cc2ccccc2)NC(=O)[C@@H]2CSC(=N2)c2cc(cs2)C[C@@H](C(N)=O)NC1=O [4-6] | + (0.01<Pe (10^−6 cm/s)≤0.2)
CCCC[C@@H]1NC(=O)[C@H](CCCCN)NC(=O)C(CC(C)C)NC(=O)[C@H](CC(C)C)NC(=O)[C@@H]2CSC(=N2)c2cc(cs2)C[C@@H](C(N)=O)NC(=O)C(Cc2ccccc2)NC(=O)[C@H](C)NC(=O)[C@H](C)NC(=O)[C@@H]2CCCN2C1=O (some centres unmarked) [4-8] | ++ (0.2<Pe (10^−6 cm/s)≤0.5)
CCCC[C@@H]1NC(=O)[C@H](CCCCN)NC(=O)C(CC(C)C)NC(=O)[C@H](CC(C)C)NC(=O)[C@@H]2CSC(=N2)c2cc(cs2)C[C@@H](C(N)=O)NC(=O)C(Cc2ccccc2)NC(=O)[C@H](CO)NC(=O)[C@H](C)NC(=O)[C@@H]2CCCN2C1=O (some centres unmarked) [4-9] | + (0.01<Pe (10^−6 cm/s)≤0.2)
CC(C)C[C@@H]1NC(=O)[C@@H](C(C)C)NC(=O)[C@@H]2CSC(=N2)c2cccc(c2)C[C@@H](C(N)=O)NC(=O)[C@@H](CCC(=O)O)NC(=O)[C@@H](Cc2c[nH]c3ccccc23)NC1=O [5-1] ([dV]L[dW][dE][Phe(3-(4R-CO-2-thiazolinyl))]-NH2; lactam N-5) | +++ (0.5<Pe (10^−6 cm/s))
C[C@@H]1NC(=O)CSC[C@@H](C(N)=O)NC(=O)[C@@H](Cc2ccccc2)NC(=O)CNC(=O)CNC(=O)[C@@H](Cc2ccc(O)cc2)NC1=O [7-2] ({CH2CO}-A[dY]GG[dF]C-NH2; thioether N-6) | + (0.01<Pe (10^−6 cm/s)≤0.2)
C[C@@H]1NC(=O)CSC[C@@H](C(N)=O)NC(=O)[C@H]([C@@H](C)O)NC(=O)[C@H](CCCCN)NC(=O)[C@@H](Cc2c[nH]c3ccccc23)NC(=O)[C@H](Cc2ccccc2)NC1=O [7-3] ({CH2CO}-AF[dW]KTC-NH2; thioether N-6) | − (0.01≤Pe (10^−6 cm/s))
CC(C)C[C@@H]1NC(=O)[C@@H](C(C)C)NC(=O)[C@H](C)NC(=O)CSC[C@@H](C(N)=O)NC(=O)[C@@H](CCC(=O)O)NC(=O)[C@@H](Cc2c[nH]c3ccccc23)NC1=O [7-4] ({CH2CO}-A[dV]L[dW][dE]C-NH2; thioether N-6) | + (0.01<Pe (10^−6 cm/s)≤0.2)
CCCC[C@@H]1NC(=O)[C@H](CCCCN)NC(=O)[C@H](CC(C)C)NC(=O)[C@H](CC(C)C)NC(=O)[C@H](C)NC(=O)CSC[C@@H](C(N)=O)NC(=O)[C@H](Cc2ccccc2)NC(=O)[C@H](C)NC(=O)[C@H](C)NC(=O)[C@@H]2CCCN2C1=O [7-5] ({CH2CO}-ALLK[Nle]PAAFC-NH2; thioether N-10) | Below the limit
CCCC[C@@H]1NC(=O)[C@H](CCCCN)NC(=O)[C@H](CC(C)C)NC(=O)[C@H](CC(C)C)NC(=O)[C@H](C)NC(=O)CSC[C@@H](C(N)=O)NC(=O)[C@H](Cc2ccccc2)NC(=O)[C@H](CO)NC(=O)[C@H](C)NC(=O)[C@@H]2CCCN2C1=O [7-6] ({CH2CO}-ALLK[Nle]PASFC-NH2; thioether N-10) | Below the limit
C[C@@H]1NC(=O)CC[C@@H](C(N)=O)NC(=O)[C@H](CCCNC(=N)N)NC(=O)[C@H](Cc2c[nH]c3ccccc23)NC(=O)[C@@H](CC2CCCCC2)NC(=O)[C@@H]2CCCN2C1=O [8-1] (AP[dCha]WRE-NH2; lactam N-6) | + (0.01<Pe (10^−6 cm/s)≤0.2)
C[C@@H]1NC(=O)CC[C@@H](C(N)=O)NC(=O)[C@@H](Cc2ccccc2)NC(=O)CNC(=O)CNC(=O)[C@@H](Cc2ccc(O)cc2)NC1=O [8-2] (A[dY]GG[dF]E-NH2; lactam N-6) | + (0.01<Pe (10^−6 cm/s)≤0.2)
CC(C)C[C@@H]1NC(=O)[C@@H](C(C)C)NC(=O)[C@H](C)NC(=O)CC[C@@H](C(N)=O)NC(=O)[C@@H](CCC(=O)O)NC(=O)[C@@H](Cc2c[nH]c3ccccc23)NC1=O [8-3] (A[dV]L[dW][dE]E-NH2; lactam N-6) | − (0.01≤Pe (10^−6 cm/s))
CC(=O)N[C@H]1CSSC[C@@H](C(N)=O)NC(=O)[C@@H](CCC(=O)O)NC(=O)[C@@H](Cc2c[nH]c3ccccc23)NC(=O)[C@H](CC(C)C)NC(=O)[C@@H](C(C)C)NC1=O [9-2] (Ac-C[dV]L[dW][dE]C-NH2; disulfide 1-6) | + (0.01<Pe (10^−6 cm/s)≤0.2)
CC(=O)N[C@H]1CSSC[C@@H](C(N)=O)NC(=O)[C@H]([C@@H](C)O)NC(=O)[C@H](CCCCN)NC(=O)[C@@H](Cc2c[nH]c3ccccc23)NC(=O)[C@H](Cc2ccccc2)NC1=O [9-3] (Ac-CF[dW]KTC-NH2; disulfide 1-6) | Below the limit
CCCC[C@@H]1NC(=O)[C@H](CCCCN)NC(=O)[C@H](CC(C)C)NC(=O)[C@H](CC(C)C)NC(=O)[C@@H](NC(C)=O)CSSC[C@@H](C(N)=O)NC(=O)[C@H](Cc2ccccc2)NC(=O)[C@H](C)NC(=O)[C@H](C)NC(=O)[C@@H]2CCCN2C1=O [9-4] (Ac-CLLK[Nle]PAAFC-NH2; disulfide 1-10) | Below the limit
C[C@@H]1NC(=O)Cn2cc(nn2)C[C@@H](C(N)=O)NC(=O)[C@H](CCCNC(=N)N)NC(=O)[C@H](Cc2c[nH]c3ccccc23)NC(=O)[C@@H](CC2CCCCC2)NC(=O)[C@@H]2CCCN2C1=O [10-1] | + (0.01<Pe (10^−6 cm/s)≤0.2)
CC(C)C[C@@H]1NC(=O)[C@@H](C(C)C)NC(=O)[C@H](C)NC(=O)Cn2cc(nn2)C[C@@H](C(N)=O)NC(=O)[C@@H](CCC(=O)O)NC(=O)[C@@H](Cc2c[nH]c3ccccc23)NC1=O [10-3] | − (0.01≤Pe (10^−6 cm/s))
C[C@@H]1NC(=O)Cn2cc(nn2)C[C@@H](C(N)=O)NC(=O)[C@H]([C@@H](C)O)NC(=O)[C@H](CCCCN)NC(=O)[C@@H](Cc2c[nH]c3ccccc23)NC(=O)[C@H](Cc2ccccc2)NC1=O [10-4] | − (0.01≤Pe (10^−6 cm/s))
